Assay results reported in publication PMC7918878 (Molecules, 2021).
“And” between values parts separate entries of the source, which are not always exact repeats. Equal entries are not always repeated. Where two headings read alike, the source gives them in different places.

What was measured:
HepG2 cells = conditions: cited from earlier work
[1] = molecular target: AChE isolated from electric eel (EeAChE) (Electrophorus electricus, UniProt O42275); test: biochemical; conditions: for IC50: mean ± SD, n = three independent experiments, ATCh 40 µM; for Selectivity BuChE/AChE: SI = ratio of IC50 for BuChE/IC50 for AChE, >1 means stronger inhibition of AChE
Chain of AChE isolated from electric eel (EeAChE) (O42275 24-633): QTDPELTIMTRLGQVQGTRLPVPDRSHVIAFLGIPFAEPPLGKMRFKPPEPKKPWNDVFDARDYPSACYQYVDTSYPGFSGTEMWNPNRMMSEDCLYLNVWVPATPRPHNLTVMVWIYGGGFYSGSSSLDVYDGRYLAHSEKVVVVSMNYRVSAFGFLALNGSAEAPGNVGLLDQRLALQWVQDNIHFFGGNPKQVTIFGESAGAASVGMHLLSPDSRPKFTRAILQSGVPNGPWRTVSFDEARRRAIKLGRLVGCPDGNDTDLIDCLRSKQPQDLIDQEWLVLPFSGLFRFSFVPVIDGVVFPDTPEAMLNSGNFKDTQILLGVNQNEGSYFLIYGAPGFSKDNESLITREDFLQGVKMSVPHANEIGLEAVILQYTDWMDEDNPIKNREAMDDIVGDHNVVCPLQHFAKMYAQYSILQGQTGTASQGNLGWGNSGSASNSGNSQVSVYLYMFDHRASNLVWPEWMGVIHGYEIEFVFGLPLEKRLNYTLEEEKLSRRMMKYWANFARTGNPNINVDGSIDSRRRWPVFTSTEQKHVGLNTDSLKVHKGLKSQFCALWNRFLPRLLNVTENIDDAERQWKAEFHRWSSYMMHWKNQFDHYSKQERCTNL

[2] = molecular target: BuChE obtained from equine serum (EqBuChE) (Equus caballus, UniProt P81908); test: biochemical; format: biochemical; conditions: for IC50: mean ± SD, n = three independent experiments, BTCh 40 µM; for fold less active against BuChE than 2d: compared with 2-chlorobenzylidene analogue 2d
Chain of BuChE obtained from equine serum (EqBuChE) (P81908 whole entry): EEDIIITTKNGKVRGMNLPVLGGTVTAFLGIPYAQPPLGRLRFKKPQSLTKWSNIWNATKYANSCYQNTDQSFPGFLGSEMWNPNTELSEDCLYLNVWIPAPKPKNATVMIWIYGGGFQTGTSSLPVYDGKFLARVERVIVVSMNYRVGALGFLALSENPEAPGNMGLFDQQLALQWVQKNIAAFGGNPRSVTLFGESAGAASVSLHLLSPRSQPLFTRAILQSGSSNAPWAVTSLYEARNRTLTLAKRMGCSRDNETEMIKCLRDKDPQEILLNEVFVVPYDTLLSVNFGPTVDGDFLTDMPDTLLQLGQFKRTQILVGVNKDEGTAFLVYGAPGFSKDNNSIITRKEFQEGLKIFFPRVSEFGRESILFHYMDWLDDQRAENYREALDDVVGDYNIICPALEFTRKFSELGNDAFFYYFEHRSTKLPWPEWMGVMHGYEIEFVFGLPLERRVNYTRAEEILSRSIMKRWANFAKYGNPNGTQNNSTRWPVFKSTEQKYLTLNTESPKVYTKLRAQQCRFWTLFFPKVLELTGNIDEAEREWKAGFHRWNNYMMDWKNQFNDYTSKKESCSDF

eeAChE = eeAChE (Electrophorus electricus, UniProt O42275); test: Type of inhibition, Lineweaver–Burk plot and nonlinear regression; format: biochemical
Chain of eeAChE (O42275 24-633): as the sequence (O42275 24-633) above
Method: The type of inhibition could be distinguished using a Lineweaver–Burk plot and corresponding comparison of two kinetic parameters: Michaelis constant (KM) and maximum velocity (Vm) of uninhibited and inhibited reaction. […].
. The dependence absorbance vs. time was observed and the reaction rate was calculated. All measurements were carried out in duplicate and the average values of reaction rate were used for the construction of the Lineweaver–Burk plot. Furthermore, the dependencies vs. concentration of ATCh in absence and presence of inhibitor 2l were analyzed by nonlinear regression using GraphPad Prism 9.0.1 for Windows (GraphPad Software, San Diego, CA, USA, www.graphpad.com). From obtained equations of regression curves in the Lineweaver–Burk plot, the values of Michaelis constant (KM) and maximum velocity (Vm) were calculated. […]. Based on all obtained results, the type of inhibition was identified.

[3] = nonlinear regression, mixed model inhibition

O=C(N/N=C/c1ccccc1)c1ccc(C(F)(F)F)cc1 [2a]
IC50 (HepG2 cells): > 100 µM
IC50 [1]: 75.9 ± 1.6 µM
IC50 ([2]; read-out: IC50 BuChE): 651 ± 31.5 µM

O=C(N/N=C/c1ccc(Cl)cc1)c1ccc(C(F)(F)F)cc1 [2b]
IC50 (HepG2 cells): > 100 µM
Selectivity BuChE/AChE [1]: 2.9
IC50 [1]: 88.5 ± 1.4 µM
IC50 ([2]; read-out: IC50 BuChE): 254 ± 3.3 µM

O=C(N/N=C/c1cccc(Cl)c1)c1ccc(C(F)(F)F)cc1 [2c]
IC50 (HepG2 cells): > 100 µM
Selectivity BuChE/AChE [1]: 3.4
IC50 [1]: 77.1 ± 0.03 µM
IC50 ([2]; read-out: IC50 BuChE): 261 ± 40.7 µM

O=C(N/N=C/c1ccccc1Cl)c1ccc(C(F)(F)F)cc1 [2d]
IC50 (HepG2 cells): > 100 µM
Selectivity BuChE/AChE [1]: 0.5
IC50 [1]: 128 ± 10 µM
IC50 ([2]; IC50 BuChE): 63.6 ± 0.9 µM

O=C(N/N=C/c1ccc(O)cc1)c1ccc(C(F)(F)F)cc1 [2e]
IC50 (HepG2 cells): > 100 µM
Selectivity BuChE/AChE [1]: 2.3
IC50 [1]: 102 ± 3.8 µM
IC50 ([2]; read-out: IC50 BuChE): 229 ± 14.5 µM

O=C(N/N=C/c1cccc(O)c1)c1ccc(C(F)(F)F)cc1 [2f]
IC50 (HepG2 cells): > 100 µM
Selectivity BuChE/AChE [1]: 3.5
IC50 [1]: 70.4 ± 2.8 µM
IC50 ([2]; read-out: IC50 BuChE): 250 ± 7.5 µM

O=C(N/N=C/c1ccccc1O)c1ccc(C(F)(F)F)cc1 [2g]
IC50 (HepG2 cells): > 100 µM
Selectivity BuChE/AChE [1]: 18.6
IC50 [1]: 47.4 ± 1.8 µM
IC50 ([2]; read-out: IC50 BuChE): 881.1 ± 8 µM

O=C(N/N=C/c1cc(Cl)ccc1O)c1ccc(C(F)(F)F)cc1 [2h]
IC50 (HepG2 cells): > 100 µM
Selectivity BuChE/AChE [1]: 2.1
IC50 [1]: 138 ± 3 µM
IC50 ([2]; read-out: IC50 BuChE): 287 ± 12.6 µM

Cc1ccc(/C=N/NC(=O)c2ccc(C(F)(F)F)cc2)cc1 [2i]
IC50 (HepG2 cells): > 100 µM
Selectivity BuChE/AChE [1]: 2.8
IC50 [1]: 91.4 ± 6.2 µM
IC50 ([2]; read-out: IC50 BuChE): 253 ± 9.6 µM

COc1ccc(/C=N/NC(=O)c2ccc(C(F)(F)F)cc2)cc1 [2j]
IC50 (HepG2 cells): > 100 µM
Selectivity BuChE/AChE [1]: 2.6
IC50 [1]: 109 ± 2.2 µM
IC50 ([2]; read-out: IC50 BuChE): 279 ± 2.9 µM

O=C(N/N=C/c1ccc(Br)cc1)c1ccc(C(F)(F)F)cc1 [2k]
IC50 (HepG2 cells): > 100 µM
Selectivity BuChE/AChE [1]: 5.5
IC50 [1]: 62.1 ± 0.02 µM
fold less active against BuChE than 2d [2]: approximately 3 fold
IC50 ([2]; read-out: IC50 BuChE): 342 ± 11.3 µM

O=C(NN=Cc1ccc(C(F)(F)F)cc1)c1ccc(C(F)(F)F)cc1 [2l, 4-(Trifluoromethyl)-N’-[4-(trifluoromethyl)benzylidene]benzohydrazide]
IC50 (HepG2 cells): > 100 µM
Type of inhibition (eeAChE; Lineweaver–Burk plot, KM and Vm, ATCh 20–80 µM, inhibitor 10–40 µM): mixed type of inhibition
Ki (eeAChE; [3]): 54.6 µM
alpha (eeAChE; [3]): 1.28
Selectivity BuChE/AChE [1]: 3.7
IC50 [1]: 46.8 ± 2.1 µM
fold less active against BuChE than 2d [2]: approximately 3 fold
IC50 ([2]; read-out: IC50 BuChE): 175 ± 8.3 µM

O=C(N/N=C/c1ccc([N+](=O)[O-])cc1)c1ccc(C(F)(F)F)cc1 [2m]
IC50 (HepG2 cells): > 100 µM
Selectivity BuChE/AChE [1]: 3.2
IC50 [1]: 60 ± 0.4 µM
IC50 ([2]; read-out: IC50 BuChE): 190.6 ± 1.1 µM

O=C(NN=Cc1cccc(Br)c1)c1ccc(C(F)(F)F)cc1 [2n, N’-(3-Bromobenzylidene)-4-(trifluoromethyl)benzohydrazide]
Selectivity BuChE/AChE [1]: 1.7
IC50 [1]: 96.9 ± 1.3 µM
IC50 ([2]; read-out: IC50 BuChE): 166.3 ± 0.8 µM

O=C(NN=Cc1ccccc1Br)c1ccc(C(F)(F)F)cc1 [2o, N’-(2-Bromobenzylidene)-4-(trifluoromethyl)benzohydrazide]
Selectivity BuChE/AChE [1]: 0.9
IC50 [1]: 62.6 ± 3.2 µM
improved activity against BuChE ([2]; fold, 2k vs. 2o): 6.3 ×
IC50 ([2]; read-out: IC50 BuChE): 54.2 ± 0.1 µM

O=C(NN=Cc1cccc(C(F)(F)F)c1)c1ccc(C(F)(F)F)cc1 [2p, 4-(Trifluoromethyl)-N’-[3-(trifluoromethyl)benzylidene]benzohydrazide]
Selectivity BuChE/AChE [1]: 1.3
IC50 [1]: 49.9 ± 1.4 µM
IC50 ([2]; read-out: IC50 BuChE): 63.6 ± 2.8 µM

O=C(NN=Cc1ccccc1C(F)(F)F)c1ccc(C(F)(F)F)cc1 [2q, 4-(Trifluoromethyl)-N’-[2-(trifluoromethyl)benzylidene]benzohydrazide]
Selectivity BuChE/AChE [1]: 0.4
IC50 [1]: 50 ± 1.6 µM
IC50 ([2]; read-out: IC50 BuChE): 19.1 ± 0.5 µM

O=C(NN=Cc1cccc([N+](=O)[O-])c1)c1ccc(C(F)(F)F)cc1 [2r, N’-(3-Nitrobenzylidene)-4-(trifluoromethyl)benzohydrazide]
Selectivity BuChE/AChE [1]: 1.6
IC50 [1]: 81.3 ± 2.6 µM
IC50 ([2]; read-out: IC50 BuChE): 133 ± 10.2 µM

O=C(NN=Cc1ccccc1[N+](=O)[O-])c1ccc(C(F)(F)F)cc1 [2s, N’-(2-Nitrobenzylidene)-4-(trifluoromethyl)benzohydrazide]
Selectivity BuChE/AChE [1]: 1.6
IC50 [1]: 59.7 ± 5.8 µM
IC50 ([2]; read-out: IC50 BuChE): 93.1 ± 4.9 µM

O=C(NN=Cc1ccc(C(F)(F)F)cc1)c1ccccc1 [2t, N’-[4-(Trifluoromethyl)benzylidene]benzohydrazide]
Selectivity BuChE/AChE [1]: 3.0
IC50 [1]: 62.9 ± 0.8 µM
IC50 ([2]; read-out: IC50 BuChE): 189.8 ± 1.7 µM

Cc1ccc(C(=O)NN=Cc2ccc(C(F)(F)F)cc2)cc1 [2u, 4-Methyl-N’-[4-(trifluoromethyl)benzylidene]benzohydrazide]
Selectivity BuChE/AChE [1]: 3.3
IC50 [1]: 75.3 ± 1.5 µM
IC50 ([2]; read-out: IC50 BuChE): 245 ± 7 µM

CC(C)=NNC(=O)c1ccc(C(F)(F)F)cc1 [3a]
IC50 (HepG2 cells): > 100 µM
Selectivity BuChE/AChE [1]: 6.1
IC50 [1]: 69.7 ± 5.2 µM
IC50 ([2]; read-out: IC50 BuChE): 424 µM

O=C(NN=C1CCCC1)c1ccc(C(F)(F)F)cc1 [3b]
IC50 (HepG2 cells): > 100 µM
Selectivity BuChE/AChE [1]: 2.9
IC50 [1]: 69.2 ± 1 µM
IC50 ([2]; read-out: IC50 BuChE): 200 ± 13.2 µM

O=C(NN=C1CCCCC1)c1ccc(C(F)(F)F)cc1 [3c]
IC50 (HepG2 cells): > 100 µM
Selectivity BuChE/AChE [1]: 1.2
IC50 [1]: 61.2 ± 1.3 µM
IC50 ([2]; read-out: IC50 BuChE): 74.7 ± 2.7 µM

CC12CCC(CC1=NNC(=O)c1ccc(C(F)(F)F)cc1)C2(C)C (centres unmarked) [3d]
IC50 (HepG2 cells): > 100 µM
Selectivity BuChE/AChE [1]: 1.0
IC50 [1]: 59.3 ± 1.8 µM
IC50 ([2]; read-out: IC50 BuChE): 57 µM and 57.2 µM

NNC(=O)c1ccc(C(F)(F)F)cc1 [compound 1, 4-(Trifluoromethyl)benzohydrazide]
IC50 (HepG2 cells): > 100 µM
